“Also recorded” adds a separate entry of the source.
Legend:
[1] = tested on: wild type zebrafish embryos; assay: Cardiac performance (line-scan fractional shortening, heart rate) of wild type embryos; assay type: in vivo
Description: (§1) Movies of GFP-labelled myl7:GFP hearts were taken at 30 frames per second. Line-scan analysis was performed along a line through the atria or the ventricles of these hearts (Nguyen et al., 2009, Drug Discovery Today: Disease Models 5). Fraction of shortening was deduced from the ratio of diastolic and systolic width and heart rate was determined by beats per minute. Cardiac parameters were analyzed in tremblor^tc318 and VDAC2^LA2256 at 2 dpf.

[2] = tested on: zebrafish tremblor (tre) embryos; assay: Cardiac performance (line-scan fractional shortening, heart rate) of tremblor embryos; assay type: in vivo
Description: as §1

VDAC2 = assay: Affinity bead pull down from zebrafish embryo lysate with mass spectrometry; assay type: binding; settings: zebrafish embryonic lysate, affinity agarose beads
Description: For pull down assays mono-N-Boc protected 2,2′-(ethylenedioxy)bis(ethylamine) was attached to the carboxylic ester of efsevin and its derivatives through the amide bond. After removal of the Boc group using TFA, the primary amine was coupled to the carboxylic acid of Affi-Gel 10 Gel (Biorad). Two-day-old zebrafish embryos were deyolked by centrifugation before being lysed with Rubinfeld's lysis buffer (Rubinfeld et al., 1993, Science 262, 1731-1734). The lysate was precleaned by incubation with Affi-Gel 10 Gel to eliminate non-specific binding. Precleaned lysate was incubated with affinity beads overnight. Proteins were eluted from the affinity beads and separated on SDS-PAGE. Protein bands of interest were excised. Gel plugs were dehydrated in acetonitrile (ACN) and dried completely in a Speedvac. Samples were reduced and alkylated with 10 mM dithiotreitol and 10 mM TCEP solution in 50 mM NH4HCO3 (30 min at 56° C.) and 100 mM iodoacetamide (45 min in dark), respectively. Gel plugs were washed with 50 mM NH4HCO3, dehydrated with ACN, and dried down in a Speedvac. Gel pieces were then swollen in digestion buffer containing 50 mM NH4HCO3, and 20.0 ng/μL of chymotrypsin (25° C., overnight). Peptides were extracted with 0.1% TFA in 50% ACN solution, dried down and resuspended in LC buffer A (0.1% formic acid, 2% ACN).
Extracted peptides were analyzed by nano-flow LC/MS/MS on a Thermo Orbitrap with dedicated Eksigent nanopump using a reversed phase column (New Objective). The flow rate was 200 nL/min for separation: mobile phase A contained 0.1% formic acid, 2% ACN in water, and mobile phase B contained 0.1% formic acid, 20% water in ACN. The gradient used for analyses was linear from 5% B to 50% B over 60 min, then to 95% B over 15 min, and finally keeping constant 95% B for 10 min. Spectra were acquired in data-dependent mode with dynamic exclusion where the instrument selects the top six most abundant ions in the parent spectra for fragmentation. […]

NCX1hMO injected embryos = assay: Restoration of coordinated cardiac contractions in NCX1h morpholino embryos; assay type: in vivo, zebrafish; settings: for embryos with coordinated contractions: VDAC2^zfn/zfn
Description: VDAC2 mRNA and morpholino antisense oligos (5′-[…]-3′) (Genetools) (SEQ ID NO: 9) were injected into one-cell stage embryos collected from crosses of tre^tc318 heterozygotes. Cardiac performance was analyzed by visual inspection on 1 dpf. The tre mutant embryos were identified either by observing the fibrillation phenotype at 2-3 dpf or by genotyping as previously described (Langenbacher et al., 2005).
Chemicals from a synthetic library (Castellano et al., 2007, J Am Chem Soc 129, 5843-5845; Choi et al., 2011, Development 138, 1173-1181; Cruz et al., 2011, Proc Natl Acad Sci USA 108, 6769-6774) and from Biomol International LP were screened for their ability to partially or completely restore persistent heartbeat in tre embryos. 12 embryos collected from crosses of tre^tc318 heterozygotes were raised in the presence of individual compounds at a concentration of 10 μM from 4 hpf (Choi et al., 2011). Cardiac function was analyzed by visual inspection at 1 and 2 dpf. The hearts of tre^tc318 embryos manifest a chaotic movement resembling cardiac fibrillation with intermittent contractions in rare occasion (Ebert et al., 2005; Langenbacher et al., 2005). Compounds that elicit persistent coordinated cardiac contractions were validated on large number of tre mutant embryos and NCX1h morphants (>500 embryos).

HeLa cells = assay: Mitochondria Ca2+ uptake assay in HeLa cells; assay type: cell-based; settings: permeabilized cells, 1 μM efsevin, Rhod2
Description: HeLa cells were transfected with zebrafish VDAC2 using Lipofectamine™ 2000 (Invitrogen). 36 hrs after transfection, cells were loaded with 5 μM Rhod2-AM (Invitrogen), a Ca^2+ indicator preferentially localized in mitochondria, for 1 hour at 15° C. followed by a 30 min de-esterification period at 37° C. Subsequently, cells were permeabilized with 100 μM digitonin for 1 min at room temperature. Fluorescence changes in Rhod2 (ex: 544 nm, em: 590 nm) immediately after the addition of Ca^2+ (final free Ca^2+ concentration is calculated to be approximately 10 μM using WEBMAXC at http://web.stanford.edu/˜cpatton/webmaxcS.htm) were monitored in internal buffer (5 mM K-EGTA, 20 mM HEPES, 100 mM K-aspartate, 40 mM KCl, 1 mM MgCl2, 2 mM maleic acid, 2 mM glutamic acid, 5 mM pyruvic acid, 0.5 mM KH2PO4, 5 mM MgATP, pH adjusted to 7.2 with Trizma base) using a FLUOSTAR plate reader (BMG Labtech).

[3] = tested on: mouse embryonic stem cell-derived cardiomyocytes (mESC-CMs); assay: Ca2+ overload-induced irregular Ca2+ transients and contractions in mESC-CMs; assay type: cell-based; settings: 10 mM Ca2+ext + 10 μM efsevin
Description: The mouse E14Tg2a ESC and human H9 ESC line were cultured and differentiated as previously described (Blin et al., 2010, J Clin Invest 120, 1125-1139; Arshi et al., 2013, Sci Technol Adv Mater 2013, 025003). At day 10 of differentiation, beating mouse EBs were exposed to external solution containing 10 mM CaCl2 for 10 minutes before DMSO or efsevin (10 μM) treatment. Human EBs were differentiated for 15 days and treated with 5 mM CaCl2) for 10 minutes before DMSO or efsevin (5 μM) treatment. Images of beating EBs were acquired at a rate of 30 frames/sec and analyzed by motion-detection software. For calcium recording, the EBs were loaded with 10 μM fluo-4 AM in culture media for 30 minutes at 37° C. Line-scan analysis was performed and fluorescent signals were acquired by a Zeiss LSM510 confocal microscope.

[4] = efsevin treatment, NCX1MO embryos

Compound: CCOC(=O)C1=CCN(S(=O)(=O)c2ccc(C)cc2)C1c1ccccc1 (stereo not drawn) [efsevin]
- cardiac performance of wild-type embryos ([1]; efsevin-treated wild-type embryo, 2 dpf): did not affect cardiac performance
- heart rate ([1]; efsevin-treated wild-type embryos): 123±3 bpm
- Atrial FS ([1]; wild type + efsevin, 48 hpf): 35±2%
- Ventricular FS ([1]; wild type + efsevin, 48 hpf): 39±1%
- heart rate ([2]; efsevin-treated tre embryos): 46±2 beats per minute (bpm)
- heart rate restored, relative to wild-type/controls ([2]; efsevin-treated tre embryos, 2 dpf, % of wild-type heart rate): approximately 40%
- Atrial FS ([2]; tre + efsevin, 48 hpf): 33±2%
- Ventricular FS ([2]; tre + efsevin, 48 hpf): 35±3%
- pull down of the 32 kD band (VDAC2) (VDAC2): pulled down
- embryos with coordinated cardiac contractions (NCX1hMO injected embryos; [4]): 76.2±8.7%
- embryos with coordinated contractions (NCX1hMO injected embryos; [4]): 54.1±3.6%
- embryos with coordinated contractions (NCX1hMO injected embryos; efsevin treatment, VDAC1MO, NCX1MO embryos): 35.7±7.1%
- restoration of rhythmic contractions in NCX1hMO injected embryos (NCX1hMO injected embryos; linker-attached compounds): retained their ability to restore rhythmic contractions
- mitochondrial Ca2+ uptake after addition of Ca2+ (HeLa cells): increased mitochondrial Ca^2+ uptake
- rhythmic Ca2+ transients and contractions under Ca2+ overload [3]: restored rhythmic Ca2+ transients and cardiac contractions; also recorded: restores regular Ca^2+ transients

Source: patent US12378193B2, “Anti-arrhythmicity agents” (The Regents of the University of California, priority 2014, dated 2025)
